The values that follow come from US11149047B2, “Aryl imidazoles for treatment of cancer” (Aptose Biosciences Inc., priority 2017, dated 2021).

One test relates to ds-DNA. Put plainly: Modified FRET assay with ds-DNA hairpin oligo. It is filed as binding. The protocol:
FRET assay and data analysis was performed as described previously and modified by using dual labeled (5′ FAM-3′ BHQ1) single-stranded oligos. Melting temperature of each oligo was assessed in the presence of vehicle DMSO or escalating concentrations of COMPOUND I, Fe(COMPOUND I)3, CX-5461, or TMPyP4 using a Roche LightCycler 96 [at 37° C. for 300 seconds followed by temperature increased in […] intervals up to 91° C. (25 steps) with 300-second total incubation time at each temperature]. Drug and oligo reaction mixes were analyzed immediately or incubated for 6 hours at room temperature and then analyzed. […] COMPOUND I data are presented for 6-hour time point.
To assess selectivity for G4 structures over nonspecific interactions with ds-DNA, the FRET assay was repeated with a self-complimentary oligo that forms a ds-DNA hairpin in solution. […] The lack of effect on 45 s rRNA may reflect differences in availability of COMPOUND I and/or Fe(COMPOUND I)3 into the rRNA-rich nucleolar region of the nucleus. Nevertheless, COMPOUND I clearly can stabilize G4 structures, which provides an explanation for the inhibition of the expression of MYC and other genes. […]

Test [1] relates to PEO4 and PEO1 ovarian cancer cell lines. Kind of test: Sensitivity of BRCA2-proficient and -deficient cells. The note with it: FIG. 3D. Format: cell-based. On the procedure:
(§1) Cells were plated and treated with the indicated drugs in 96-well plates for 5 days. Cell viability was measured using CellTiter 96 AQueous one solution (MTS) cell proliferation assay purchased from Promega, and IC50 values were calculated using GraphPad Prism 6 Software.
The finding that COMPOUND I produced DNA damage led to the investigation of whether cells deficient in homologous recombination were hypersensitive to this drug. The hypothesis that there would be synthetic lethality between COMPOUND I and BRCA1 deficiency using isogenic pairs of BRCA1-proficient and -deficient human cell lines was tested. […] The conclusion that BRCA1-deficient cells are hypersensitive to COMPOUND I was further supported by the results obtained in MCF7 E7 cells in which BRCA1 expression is stably knocked down by the expression of an shRNAi. […] Whether BRCA2-deficient cells are more sensitive to COMPOUND I was tested using the BRCA2-proficient and BRCA2-deficient ovarian cancer cell lines, PEO4 and PEO1, respectively. PEO1 is BRCA2-deficient and sensitive to cisplatin and a poly(ADP-ribose) polymerase inhibitor AG14361. PEO4 was derived from ascites at the time of relapse with cisplatin resistance and contains a secondary mutation that restores BRCA2 function. […] Thus, loss of either BRCA1 or BRCA2 function renders malignant cells hypersensitive to COMPOUND I.

For the next test, the system named is Raji/COMPOUND IR cells. Put plainly: Cytotoxicity study, MTS cell proliferation assay, 5 days. Format: cell-based, human. The settings on record: for RR (relative resistance): Raji/COMPOUND IR vs Raji; for IC50: Homo sapiens, Raji. The protocol: (§2) The human Burkitt lymphoma cell line Raji was obtained from the American Type Tissue Culture Collection and cultured in RPMI 1640 medium (ATCC) supplemented with 10% fetal bovine serum (ATCC,) at 37° C., 5% CO2. The COMPOUND I-resistant Raji (Raji/COMPOUND IR) cell line was generated by exposure to progressively higher concentrations of COMPOUND I over a period of 6 months. CAOV3 cells were obtained from ATCC and cultured in complete DMEM supplemented with 10% fetal bovine serum. MCF7 vector controlled and BRCA1 shRNA subclones were obtained from Dr. Simon Powell (Memorial Sloan-Kettering Cancer Center) and cultured in EMBM with 10% fetal bovine serum. MCF10A and hTERT-IMEC clones were obtained from Dr. Ben Ho Park (Johns Hopkins University). HCT116 BRCA2^+/+ cells and BRCA2^−/− cells were obtained from Dr. Samuel Aparicio (British Columbia Cancer Research Centre). PEO1 and PEO4 cells were obtained from Dr. Sharon Cantor (University of Massachusetts) and these cell lines were cultured under the same conditions as previously published. Sakai et al., Functional restoration of BRCA2 protein by secondary BRCA2 mutations in BRCA2-mutated ovarian carcinoma, Cancer Res. 2009; 69 (16):6381-6; Konishi et al., Mutation of a single allele of the cancer susceptibility gene BRCA1 leads to genomic instability in human breast epithelial cells, Proc. Natl. Acad. Sci. 2011; 108 (43):17773-8; Xu et al., CX-5461 is a DNA G-quadruplex stabilizer with selective lethality in BRCA1/2 deficient tumours, Nature Communications 2017; 8:14432, all of which are hereby incorporated by reference.
as §1
On the technique in general: Tetrazolium assays rely on reduction of a dye to a coloured formazan, in cell work by metabolically active cells.

In the next test the test system is Raji cells. Described as above. Format: cell-based, human. The note with it: Homo sapiens, Raji. The protocol: as §2, §1
The test system of test [2] is AML cells (MV4-11, KG-1, EOL-1). Put plainly: Flow cytometry cell-cycle analysis, time course. It is filed as cell-based. The note with it: IC50 concentration. The protocol: Cells were treated as described above. To determine apoptosis, cells were stained with FITC-Annexin V and propidium iodide (PI; BD Pharmingen, catalog #556570) and then analyzed on BD Accuri C6 flow cytometer. To measure DNA synthesis and phases of cell cycle, treated cells were stained with 5-ethynyl-2′-deoxyuridine (Edu) Alexa Fluor 488 (Thermo Fisher Scientific, catalog #C10425) and PI (PI/RNase A staining solution, BD Biosciences, catalog #550825). The dead cells were excluded from analysis by using Live/Dead Fixable Far Red Dead Cell Stain Kit (Thermo Fisher Scientific, catalog #L34973). Staining was performed as per the manufacturers' instructions.
There was no perturbation of cell-cycle phase distribution in cells treated with vehicle alone. An increase in the fraction of cells in G0-G1 was detected as early as 2 hours, and this fraction continued to increase in a time-dependent manner throughout the 24-hour period of drug exposure (FIGS. 9D-F).

Marks after values point to notes of the source that are not given here.

Usually IC50 stands for the concentration that inhibits the measured activity by half. As for `Cc1[nH]c2ccc(F)cc2c1-c1nc2c3cccnc3c3ncccc3c2[nH]1` [COMPOUND I, 2-(5-fluoro-2-methyl-1H-indol-3-yl)-1H-imidazo[4,5-f][1,10]phenanthroline], in the test on ds-DNA, the “interaction with dsDNA” value is listed as “did not interact with dsDNA”. Moreover, the “effect of restoration of BRCA2 function (PEO4 vs PEO1)” value in test [1] is recorded as “increased resistance”. In addition, in the test on Raji/COMPOUND IR cells, the “fold resistant to COMPOUND I (Raji/COMPOUND IR over sensitive Raji)” value amounted to 16.7±3.9 fold. In addition, the “RR (relative resistance)” value is listed as 10.9 ± 1.9^c with Raji/COMPOUND IR cells (COMPOUND I + 5 nM Ko143), 2.5 ± 0.7^a with Raji/COMPOUND IR cells (COMPOUND I + 50 nM Ko143) and 16.7 ± 3.9^b in the test with Raji/COMPOUND IR cells (COMPOUND I alone). For the same compound, the IC50 in the test with Raji/COMPOUND IR cells (COMPOUND I + 5 nM Ko143, Raji/COMPOUND IR) was 853 ± 44 nM; with Raji/COMPOUND IR cells (COMPOUND I + 50 nM Ko143, Raji/COMPOUND IR) it was 201 ± 20.7 nM; with Raji/COMPOUND IR cells (COMPOUND I alone, Raji/COMPOUND IR, mean ± SEM) it was 1390 ± 94 nM; in the test on Raji/COMPOUND IR cells (Raji/COMPOUND IR cells), 1390 ± 98.5 nM; with Raji cells (120 h, parental Raji cells, growth rate during 120 h exposure), 91.9 ± 22.3 nM; in the test on Raji cells (COMPOUND I + 5 nM Ko143), 98.3 ± 0.8 nM. Besides, the IC50 in the test on Raji cells (COMPOUND I + 50 nM Ko143) came out at 103 ± 2.9 nM; with Raji cells (COMPOUND I alone, mean ± SEM), 105 nM. Further, the “earliest time an increase in the fraction of cells in G0-G1 was detected” value in test [2] was 2 h.
